Assay results taken from ChEMBL document CHEMBL6134805, “Dual-acting β-Aminothiochromones: Design, synthesis, and evaluation as antimicrobial and anti-angiogenic agents” (2025).
Values after ≈ are worked out from the molar mass of the structure shown. Active and inactive are the calls of the source. No cut-off for these calls is given here.

Columns and labels:
Bacillus subtilis [1] = assay: Antimicrobial activity against Bacillus subtilis MTCC 13343 assessed as reduction in bacterial growth by serial dilution method; type: functional
Bacillus subtilis [2] = assay: Bactericidal activity against Bacillus subtilis MTCC 13343 by serial dilution method; type: functional
Staphylococcus aureus [3] = assay: Antimicrobial activity against Staphylococcus aureus ATCC 6538 assessed as reduction in bacterial growth by serial dilution method; type: functional
Staphylococcus aureus [4] = assay: Bactericidal activity against Staphylococcus aureus ATCC 6538 by serial dilution method; type: functional
HepG2 [5] = assay: Cytotoxicity against human HepG2 cells assessed as reduction in cell viability at 25 to 100 ug/mL by MTT assay; type: functional, cell-based; conditions: dose 25-100 µg/ml
HepG2 [6] = assay: Antiangiogenic activity against human HepG2 cells assessed as reduction in area of wound coverage at 12.5 ug/mL incubated for 72 hrs by scratch wound healing assay relative to control; type: functional; parameters: scale not given: the % may be the effect or the level left; conditions: dose 12.5 µg/ml
HepG2 [7] = assay: Cytotoxicity against human HepG2 cells assessed as reduction in cell viability up to 100 ug/mL by MTT assay relative to control; type: functional; conditions: dose <= 100 µg/ml; up to 100 µg/mL
HepG2 [8] = assay: Antiangiogenic activity against human HepG2 cells assessed as reduction in area of wound coverage at 6.25 to 12.5 ug/mL by scratch wound healing assay; type: functional, cell-based; conditions: dose 6.25-12.5 µg/ml, time 24-72 hrs
Escherichia coli [9] = assay: Selectivity ratio of MBC for bactericidal activity against Escherichia coli ATCC 10799 to MIC for antimicrobial activity against Escherichia coli ATCC 10799; type: functional
Escherichia coli [10] = assay: Antimicrobial activity against Escherichia coli ATCC 10799 assessed as reduction in bacterial growth by serial dilution method; type: functional
HepG2 [11] = assay: Antiangiogenic activity against human HepG2 cells assessed as reduction in area of wound coverage at 6.25 ug/mL incubated for 24 to 72 hrs by scratch wound healing assay; type: functional, cell-based; conditions: dose 6.25 µg/ml, time 24-72 hrs
Pseudomonas aeruginosa [12] = assay: Antimicrobial activity against Pseudomonas aeruginosa MTCC 11778 assessed as reduction in bacterial growth by serial dilution method; type: functional
Candida albicans [13] = assay: Antimicrobial activity against Candida albicans ATCC 24433 assessed as reduction in fungal growth by serial dilution method; type: functional
HepG2 [14] = assay: Antiangiogenic activity against human HepG2 cells assessed as reduction in area of wound coverage at 12.5 ug/mL incubated for 24 to 72 hrs by scratch wound healing assay; type: functional, cell-based; conditions: dose 12.5 µg/ml, time 24-72 hrs
Nakaseomyces glabratus = assay: Antimicrobial activity against Candida glabrata MTCC 3019 assessed as reduction in fungal growth by serial dilution method; type: functional
HepG2 [15] = assay: Antiangiogenic activity against human HepG2 cells assessed as reduction in area of wound coverage incubated for 24 to 72 hrs by scratch wound healing assay; type: functional, cell-based; conditions: dose 6.25-12.5 µg/ml, time 24-72 hrs
Escherichia coli [16] = assay: Bactericidal activity against Escherichia coli ATCC 10799 by serial dilution method; type: functional
Pseudomonas aeruginosa [17] = assay: Bactericidal activity against Pseudomonas aeruginosa MTCC 11778 by serial dilution method; type: functional
Bacillus subtilis [18] = assay: Selectivity ratio of MBC for bactericidal activity against Bacillus subtilis MTCC 13343 to MIC for antimicrobial activity against Bacillus subtilis MTCC 13343; type: functional
HepG2 [19] = assay: Antiangiogenic activity against human HepG2 cells assessed as reduction in area of wound coverage at 12.5 ug/mL incubated for 48 hrs by scratch wound healing assay; type: functional; conditions: dose 12.5 µg/ml
HepG2 [20] = assay: Antiangiogenic activity against human HepG2 cells assessed as reduction in area of wound coverage at 12.5 ug/mL incubated for 72 hrs by scratch wound healing assay; type: functional; conditions: dose 12.5 µg/ml
HepG2 [21] = assay: Antiangiogenic activity against human HepG2 cells assessed as reduction in area of wound coverage at 12.5 ug/mL incubated for 24 hrs by scratch wound healing assay; type: functional; conditions: dose 12.5 µg/ml
HepG2 [22] = assay: Cytotoxicity against human HepG2 cells assessed as reduction in cell viability at 100 ug/mL by MTT assay relative to control; type: functional; conditions: dose 100 µg/ml
Candida albicans [23] = assay: Fungicidal activity against Candida albicans ATCC 24433 by serial dilution method; type: functional

SMILES: CC1(C)S[C@@H]2[C@H](NC(=O)[C@H](N)c3ccccc3)C(=O)N2[C@H]1C(=O)O [AMPICILLIN]
- MIC (Bacillus subtilis [1]): 8 µg/mL (≈ 22.9 µM)
- MBC (Bacillus subtilis [2]): 32 µg/mL (≈ 91.6 µM)
- MIC (Staphylococcus aureus [3]): 4 µg/mL (≈ 11.4 µM)
- MBC (Staphylococcus aureus [4]): 64 µg/mL (≈ 183 µM)

SMILES: O=c1c(C(NCc2ccc(OC(F)(F)F)cc2)c2ccccc2)csc2ccccc12 (stereo not drawn)
- Activity (HepG2 [5]): Active
- Activity (HepG2 [6]): 31.19%
- Activity (HepG2 [7]): >70%
- Activity (HepG2 [8]): Time-dependent-effect
- Selectivity ratio (Escherichia coli [9]): 4
- MIC (Escherichia coli [10]): 8 µg/mL (≈ 18.1 µM)
- Activity (HepG2 [11]): Active
- MIC (Pseudomonas aeruginosa [12]): 16 µg/mL (≈ 36.2 µM)
- MIC (Candida albicans [13]): 16 µg/mL (≈ 36.2 µM)
- Activity (HepG2 [14]): Active
- MIC (Bacillus subtilis [1]): 16 µg/mL (≈ 36.2 µM)
- MBC (Bacillus subtilis [2]): 64 µg/mL (≈ 145 µM)
- MIC (Nakaseomyces glabratus): 16 µg/mL (≈ 36.2 µM)
- Activity (HepG2 [15]): Dose-dependent-effect
- MIC (Staphylococcus aureus [3]): 8 µg/mL (≈ 18.1 µM)
- MBC (Staphylococcus aureus [4]): 32 µg/mL (≈ 72.5 µM)
- MBC (Escherichia coli [16]): 32 µg/mL (≈ 72.5 µM)
- MBC (Pseudomonas aeruginosa [17]): 64 µg/mL (≈ 145 µM)
- Selectivity ratio (Bacillus subtilis [18]): 16

SMILES: O=c1c(C(NCc2ccccc2)c2ccccc2)csc2ccc(Cl)cc12 (stereo not drawn)
- Activity (HepG2 [19]): 683000 µm²
- Activity (HepG2 [5]): Active
- Activity (HepG2 [6]): 18.24%
- Activity (HepG2 [20]): 692000 µm²
- Activity (HepG2 [8]): Time-dependent-effect
- MIC (Escherichia coli [10]): 16 µg/mL (≈ 40.8 µM)
- Activity (HepG2 [11]): Active
- MIC (Pseudomonas aeruginosa [12]): 8 µg/mL (≈ 20.4 µM)
- MIC (Candida albicans [13]): 16 µg/mL (≈ 40.8 µM)
- MIC (Bacillus subtilis [1]): 4 µg/mL (≈ 10.2 µM)
- Activity (HepG2 [21]): 768000 µm²
- MBC (Bacillus subtilis [2]): 64 µg/mL (≈ 163 µM)
- MIC (Nakaseomyces glabratus): 8 µg/mL (≈ 20.4 µM)
- Activity (HepG2 [15]): Dose-dependent-effect
- MIC (Staphylococcus aureus [3]): 16 µg/mL (≈ 40.8 µM)
- Activity (HepG2 [22]): 80%
- MBC (Pseudomonas aeruginosa [17]): 64 µg/mL (≈ 163 µM)
- Selectivity ratio (Bacillus subtilis [18]): 16

SMILES: O=c1c(C(NCc2ccc(Cl)cc2)c2ccccc2)csc2ccccc12 (stereo not drawn)
- Activity (HepG2 [5]): Active
- Activity (HepG2 [6]): 25.83%
- Activity (HepG2 [7]): <70%
- Activity (HepG2 [8]): Time-dependent-effect
- MIC (Escherichia coli [10]): 32 µg/mL (≈ 81.6 µM)
- Activity (HepG2 [11]): Active
- MIC (Pseudomonas aeruginosa [12]): 32 µg/mL (≈ 81.6 µM)
- MIC (Candida albicans [13]): 32 µg/mL (≈ 81.6 µM)
- Activity (HepG2 [14]): Active
- MIC (Bacillus subtilis [1]): 64 µg/mL (≈ 163 µM)
- MIC (Nakaseomyces glabratus): 32 µg/mL (≈ 81.6 µM)
- Activity (HepG2 [15]): Dose-dependent-effect
- MIC (Staphylococcus aureus [3]): 64 µg/mL (≈ 163 µM)

SMILES: O=c1c(C(NCc2cccc(C(F)(F)F)c2)c2ccccc2)csc2ccccc12 (stereo not drawn)
- Activity (HepG2 [5]): Active
- Activity (HepG2 [6]): 28.93%
- Activity (HepG2 [7]): <70%
- Activity (HepG2 [8]): Time-dependent-effect
- MIC (Escherichia coli [10]): 32 µg/mL (≈ 75.2 µM)
- Activity (HepG2 [11]): Active
- MIC (Pseudomonas aeruginosa [12]): 32 µg/mL (≈ 75.2 µM)
- MIC (Candida albicans [13]): 32 µg/mL (≈ 75.2 µM)
- Activity (HepG2 [14]): Active
- MIC (Bacillus subtilis [1]): 64 µg/mL (≈ 150 µM)
- MIC (Nakaseomyces glabratus): 64 µg/mL (≈ 150 µM)
- Activity (HepG2 [15]): Dose-dependent-effect
- MIC (Staphylococcus aureus [3]): 64 µg/mL (≈ 150 µM)

SMILES: O=C(O)c1cn(C2CC2)c2cc(N3CCNCC3)c(F)cc2c1=O [CIPROFLOXACIN]
- MIC (Pseudomonas aeruginosa [12]): 4 µg/mL (≈ 12.1 µM)
- MBC (Escherichia coli [16]): 64 µg/mL (≈ 193 µM)
- MBC (Pseudomonas aeruginosa [17]): 32 µg/mL (≈ 96.6 µM)

SMILES: OC(Cn1cncn1)(Cn1cncn1)c1ccc(F)cc1F [FLUCONAZOLE]
- MFC (Candida albicans [23]): 64 µg/mL (≈ 209 µM)
- MIC (Candida albicans [13]): 8 µg/mL (≈ 26.1 µM)
- MIC (Nakaseomyces glabratus): 16 µg/mL (≈ 52.2 µM)
